What was measured:
[1] = target: Acetylcholinesterase (Electrophorus electricus, UniProt O42275); experiment: Inhibition of Electrophorus electricus (electric eel) acetylcholinesterase (AChE) using acetylthiocholine iodide as substrate preincubated for 15 min
[2] = target: Cholinesterase (Homo sapiens, UniProt P06276); experiment: Inhibition of BChE (unknown origin) using butyrylthiocholine chloride as substrate preincubated for 15 min
Cholinesterase, sequence (P06276 whole entry): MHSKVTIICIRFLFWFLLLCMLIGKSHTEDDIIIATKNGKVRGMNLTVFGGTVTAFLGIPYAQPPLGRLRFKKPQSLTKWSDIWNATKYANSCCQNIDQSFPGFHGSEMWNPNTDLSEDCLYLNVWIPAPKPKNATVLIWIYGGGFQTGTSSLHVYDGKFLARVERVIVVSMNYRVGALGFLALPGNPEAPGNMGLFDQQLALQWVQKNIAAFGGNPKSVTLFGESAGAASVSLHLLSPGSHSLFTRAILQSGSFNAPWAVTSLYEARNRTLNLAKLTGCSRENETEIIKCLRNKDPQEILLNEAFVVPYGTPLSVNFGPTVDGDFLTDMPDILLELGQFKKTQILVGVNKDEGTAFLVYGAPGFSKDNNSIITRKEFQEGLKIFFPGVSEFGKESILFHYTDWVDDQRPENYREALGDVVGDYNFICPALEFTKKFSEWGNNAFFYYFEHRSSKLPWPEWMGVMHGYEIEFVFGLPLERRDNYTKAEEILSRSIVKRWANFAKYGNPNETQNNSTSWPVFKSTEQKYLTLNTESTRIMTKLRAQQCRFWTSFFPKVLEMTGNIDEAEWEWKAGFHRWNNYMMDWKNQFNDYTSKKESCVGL

Acetylcholinesterase, sequence (O42275 whole entry): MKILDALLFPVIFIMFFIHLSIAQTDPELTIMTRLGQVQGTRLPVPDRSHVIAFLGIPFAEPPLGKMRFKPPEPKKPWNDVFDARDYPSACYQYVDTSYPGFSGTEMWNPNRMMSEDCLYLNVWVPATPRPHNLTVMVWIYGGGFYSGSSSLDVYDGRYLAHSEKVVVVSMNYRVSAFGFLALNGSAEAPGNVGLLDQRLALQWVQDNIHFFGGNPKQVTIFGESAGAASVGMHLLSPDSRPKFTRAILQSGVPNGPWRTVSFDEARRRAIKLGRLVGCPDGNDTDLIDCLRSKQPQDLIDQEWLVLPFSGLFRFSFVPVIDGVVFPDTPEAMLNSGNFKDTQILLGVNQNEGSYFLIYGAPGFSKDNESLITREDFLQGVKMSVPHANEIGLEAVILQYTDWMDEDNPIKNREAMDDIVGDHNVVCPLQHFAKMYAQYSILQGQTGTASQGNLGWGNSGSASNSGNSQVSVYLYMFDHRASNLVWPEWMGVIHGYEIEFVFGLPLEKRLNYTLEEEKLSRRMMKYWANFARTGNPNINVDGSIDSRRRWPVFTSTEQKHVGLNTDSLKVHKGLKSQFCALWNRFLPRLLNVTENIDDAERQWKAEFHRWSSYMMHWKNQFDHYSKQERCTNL

COc1cc(C2CC(c3cccc(O)c3)=Nc3ccccc3S2)ccc1O (configuration not stated)
IC50 [1]: Not Active | IC50 [2]: Not Active

COc1ccc(C2CC(c3cccc(O)c3)=Nc3ccccc3S2)cc1OC (configuration not stated)
IC50 [1]: Not Active

Oc1cccc(C2=Nc3ccccc3SC(c3cccnc3)C2)c1 (configuration not stated)
IC50 [1]: Not Active | IC50 [2]: Not Active

Oc1cccc(C2=Nc3ccccc3SC(c3ccccc3F)C2)c1 (configuration not stated)
IC50 ([1]; read-out: IC50): 70.6 µM | IC50 [2]: Not Active

Oc1ccccc1C1=Nc2ccccc2SC(c2ccc(Cl)cc2)C1 (configuration not stated)
IC50 [1]: Not Active | IC50 [2]: Not Active

Oc1ccccc1C1=Nc2ccccc2SC(c2ccccc2)C1 (configuration not stated)
IC50 [1]: Not Active | IC50 [2]: Not Active

Cc1ccc(C2CC(c3cccc(O)c3)=Nc3ccccc3S2)cc1 (configuration not stated)
IC50 ([1]; read-out: IC50): 49.8 µM

COc1ccc(C2CC(c3ccccc3O)=Nc3ccccc3S2)cc1 (configuration not stated)
IC50 [1]: Not Active | IC50 [2]: Not Active

Oc1cccc(C2=Nc3ccccc3SC(c3cccc(O)c3)C2)c1 (configuration not stated)
IC50 ([1]; read-out: IC50): 71.1 µM

Oc1ccc(C2CC(c3cccc(O)c3)=Nc3ccccc3S2)cc1 (configuration not stated)
IC50 [1]: Not Active | IC50 [2]: Not Active

COc1cccc(C2CC(c3ccccc3O)=Nc3ccccc3S2)c1 (configuration not stated)
IC50 [1]: Not Active | IC50 [2]: Not Active

Oc1cccc(C2=Nc3ccccc3SC(c3cccs3)C2)c1 (configuration not stated)
IC50 ([1]; read-out: IC50): 5.9 µM

Oc1ccccc1C1=Nc2ccccc2SC(c2ccc(F)cc2)C1 (configuration not stated)
IC50 [1]: Not Active | IC50 [2]: Not Active

O=[N+]([O-])c1ccc(C2CC(c3cccc(O)c3)=Nc3ccccc3S2)cc1 (configuration not stated)
IC50 [1]: Not Active | IC50 [2]: Not Active

Oc1cccc(C2=Nc3ccccc3SC(c3ccccc3Cl)C2)c1 (configuration not stated)
IC50 [1]: Not Active | IC50 [2]: Not Active

Oc1cccc(C2=Nc3ccccc3SC(c3ccc(Cl)cc3)C2)c1 (configuration not stated)
IC50 ([1]; read-out: IC50): 18.8 µM | IC50 ([2]; read-out: IC50): 76.9 µM

c1ccc(C2=Nc3ccccc3SC(c3ccccc3)C2)cc1 (configuration not stated)
IC50 [1]: Not Active | IC50 [2]: Not Active

O=[N+]([O-])c1ccc(C2CC(c3ccccc3)=Nc3ccccc3S2)cc1 (configuration not stated)
IC50 ([1]; read-out: IC50): 102 µM | IC50 ([2]; read-out: IC50): 60 µM

COc1ccc(C2CC(c3ccccc3)=Nc3ccccc3S2)cc1OC (configuration not stated)
IC50 [1]: Not Active | IC50 [2]: Not Active

O=[N+]([O-])c1cccc(C2CC(c3cccc(O)c3)=Nc3ccccc3S2)c1 (configuration not stated)
IC50 [1]: Not Active | IC50 [2]: Not Active

Cc1ccc(C2CC(c3ccccc3O)=Nc3ccccc3S2)cc1 (configuration not stated)
IC50 [1]: Not Active | IC50 [2]: Not Active

Oc1ccccc1C1=Nc2ccccc2SC(c2ccc3c(c2)OCO3)C1 (configuration not stated)
IC50 [1]: Not Active | IC50 [2]: Not Active

Oc1cccc(C2=Nc3ccccc3SC(c3cccc(Cl)c3)C2)c1 (configuration not stated)
IC50 [1]: Not Active

Oc1cccc(C2=Nc3ccccc3SC(c3ccccc3)C2)c1 (configuration not stated)
IC50 ([1]; read-out: IC50): 40 µM | IC50 ([2]; read-out: IC50): 142 µM

CN(C)c1ccc(C2CC(c3cccc(O)c3)=Nc3ccccc3S2)cc1 (configuration not stated)
IC50 [1]: Not Active

Cc1ccc(C2CC(c3ccccc3)=Nc3ccccc3S2)cc1 (configuration not stated)
IC50 [1]: Not Active | IC50 [2]: Not Active

COc1ccccc1C1CC(c2cccc(O)c2)=Nc2ccccc2S1 (configuration not stated)
IC50 [1]: Not Active
